Laboratory results reported in patent US12421271B2, “Solid forms of (2S,3S,4S,5R,6S)-3,4,5-trihydroxy-6-(((4AR, 10AR)-7-hydroxy-1-propyl-1,2,3,4,4A,5,10,10A-octahydrobenzo[g]quinolin-6-yl)oxy)tetrahydro-2H-pyran-2-carboxylic acid” (H. Lundbeck A/S, priority 2019, dated 2025).
Structures can show the parent of a compound that is named as a salt.

Columns and labels:
[1] = Dynamic vapor sorption (DVS); format: physicochemical; conditions: for Hygroscopicity / behaviour towards humidity (DVS), in words: DH1: 5-80% RH, HH: 20-95% RH, K^+ salt: two cycles
Method: Dynamic vapor sorption (DVS) was further used to evaluate selected solid forms. Hygroscopicity and dehydration behavior can be investigated by DVS analysis. DVS experiments were performed using a DVS Advantage 01 instrument from Surface Measurement Systems. Samples of 4-10 mg of the solid forms were used for the analysis. […]

[2] = Stability studies of solid forms in sealed polyethylene bags (appearance, LC-UV, Karl Fischer water, XRPD); format: physicochemical; conditions: for Overall outcome of stability testing, in words: 25° C./60% RH and 40° C./75% RH; for Physical form: XRPD
Method: The substances were packed individually in sealed polyethylene bags, with a carton box as a secondary packaging material. During stability the different batches were tested for visual appearance, assay (anhydrous i.e. calculated as water free compound), impurities and water content. In addition, XRPD was been performed as described in Example 3 at selected time points.
LC-UV was run on Agilent HPLC consisting of Agilent 1200 HPLC or equivalent including autosampler and DAD detector (operating at 278 nm).
LC-conditions: The column was Synergi Polar-RP 4 μm; 4.6×150 mm operating at 40° C. with 1.0 ml/min of a binary gradient consisting of water/acetonitrile+[…] (90:10) (A) and water/acetonitrile+[…] (35:65) (B).
(§1) The amount of impurities was determined as % area of the peak of impurity relative to the area of the main peak.
The water content was determined by coulometric Karl Fischer titration according to the European Pharmacopoeia, chapter 2.5.32 (Metrohm 874 Oven Sample Processor and Metrohm 851 KF Coulometer). The water content was evaporated by heating samples to 150° C. and the water vapor was transferred by nitrogen to the titration chamber where it was titrated to endpoint using Hydranal Coulomat AG Oven (article number 34739) titration reagent.

[3] = Stress stability, open dishes in the dark, LC-UV impurities; format: physicochemical; conditions: open dish, % area by LC-UV
Method: For the stress stability studies, the substances were stored in open dishes in the dark at 40° C./75% RH, 60° C. and 60° C./80% RH.
as §1
The stress stability testing was performed as described above, and the amount of degradation products were determined based on the LC-UV method described above.

[4] = Grinding, pressure and milling followed by XRPD; format: physicochemical; conditions: for Crystallinity by XRPD after subsequent storage of treated sample: 95% RH for 1 week; for Crystallinity by XRPD after pressure: DH1: 300 PSI for 5 minutes, K^+ salt: IR-press for 5 minutes; for Crystallinity by XRPD after grinding: grinded by hand with mortar and pestle
Method: A sample of the heptahydrate was grinded by hand using mortar and pestle for 2 minutes, and subsequently analyzed by XRPD. […] The samples were analysed by XRPD after the treatment. Subsequently, the samples were placed at 95% RH for 1 week and reanalysed by XRPD.

[5] = PK experiments in Wistar rats, plasma compound (I) after oral dosing of prodrugs; format: in vivo, rat; conditions: FIG. 1, doses equal to 287 μg/kg of compound (I)
Method: Plasma was placed on water-ice following collection. Final storage at approximately −70° C.
Mobile phase B: Acetonitrile. […] Flow rate 0.5 mL/min.
The rats had unrestricted access to the diet.
Mobile phase B: Acetonitrile+0.2% formic acid. […] Flow rate 0.3 mL/min.
Dosing and blood sampling for compound (Ic): Han Wistar rats were supplied by Envigo, UK. […] The rats received a standard laboratory diet Teklad 2014C. The rats had unrestricted access to the diet.

rat locomotor activity = experiment: Rat locomotor activity (hyperactivity) assay, open field, with PK/PD; format: in vivo
Method: Mass spectrometer (UPCLC-MS/MS) Waters Acquity I-Class-Waters Xevo TQ-S. Analytical column Acquity HSS T3 C18 50×2.1 mm, 1.8 μm. Mobile phase A: 10 mM NH4—Formate 0.2% formic acid:Acetonitril (95:5). Mobile phase B: 10 mM NH4—Formate 0.2% formic acid:Acetonitril (5:95). Gradient run from 95/5% to 5/95% in 2.40 minutes. Flow rate 0.3 mL/min. MRM detection of test items and the added analytical standards.
Animals for the study were as described in Example 10. Additionally, rats were administered a single dose of apomorphine subcutaneously.
In total, 206 male CD rats (Charles River, Germany) weighing 200-250 grams (165-190 grams upon arrival) were used in the study. Animals were housed at a standard temperature (22±1° C.) and in a light-controlled environment (lights on from 7 am to […]) with ad libitum access to food and water. The experiment described below was performed in accordance with the standard operating procedures of Charles River Discovery Research Services Finland Ltd. and in accordance with the national Animal Experiment Board of Finland (Eläinkoelautakunta, ELLA) authority on animal testing.
The test device is a square Plexiglass-arena (measuring 40×40×40 cm), in which the movement paths of the rats are recorded by an activity monitor (Med. Associates Inc.). Before the test period is initiated, rats are habituated to their test cage for 60 minutes. Upon completion of habituation, animals were treated with either compound or vehicle and placed back into the open field apparatus. The main test parameter measured is ambulatory distance (recorded in 5-minute segments). Overall time of measurement after receiving initial treatment was 360 minutes. Total follow up period in the study was 420 min, including 60 min of habituation.

Row | Hygroscopicity / behaviour towards humidity (DVS), in words [1] | Water content, % ([2]; 25° C./60% RH, 3 months) [%] | Water content, % ([2]; 25° C./60% RH, 6 months) [%] | Physical form ([2]; 25° C./60% RH, 6 months) | Water content, % ([2]; 25° C./60% RH, 9 months) [%] | Physical form ([2]; 25° C./60% RH, 9 months) | Water content, % ([2]; 25° C./60% RH, 18 months) [%] | Water content, % ([2]; 25° C./60% RH, Initial) [%] | Physical form ([2]; 25° C./60% RH, Initial) | Water content, % ([2]; 40° C./75% RH, 3 months) [%] | Water content, % ([2]; 40° C./75% RH, 6 months) [%] | Physical form ([2]; 40° C./75% RH, 6 months) | Water content, % ([2]; 40° C./75% RH, Initial) [%] | Physical form ([2]; 40° C./75% RH, Initial) | SMILES | Crystallinity by XRPD after pressure [4] | Crystallinity by XRPD after grinding [4] | also measured
1 | stable towards change in humidity | 0.22 | 0.17 | Alfa form | <0.10 | Alfa form | 0.23 | 0.11 | Alfa form | 0.38 | 0.25 | Alfa form | 0.11 | Alfa form | CCCN1CCC[C@@H]2Cc3c(ccc(O)c3O[C@@H]3O[C@H](C(=O)O)[C@@H](O)[C@H](O)[C@H]3O)C[C@H]21 [K^+ salt, (2S,3S,4S,5R,6S)-3,4,5-trihydroxy-6-(((4aR,10aR)-7-hydroxy-1-propyl-1,2,3,4,4a,5,10,10a-octahydrobenzo[g]quinolin-6-yl)oxy)tetrahydro-2H-pyran-2-carboxylic acid] | some broadening of the XRPD reflections | severe broadening of the XRPD reflections | Weight change (DVS) ([1]; at 80% RH): up to 0.6%; Further weight change (DVS) ([1]; at 90% RH): 1%; Overall outcome of stability testing, in words ([2]; listed as potassium salt): remained in the same physical form; Water content, % ([2]; 25° C./60% RH, 13 months): <0.10%; Physical form ([2]; 25° C./60% RH, 13 months): Alfa form; Physical form ([2]; 25° C./60% RH, 18 months): Alfa form; Total sum of impurities after 6 months storage ([3]; 40° C./75% RH, listed as Potassium salt): 0.10%; Total sum of impurities after 6 months storage ([3]; 60° C., listed as Potassium salt): 0.10%; Total sum of impurities after 6 months storage ([3]; 60° C./80% RH, listed as Potassium salt): 1.0%; Crystallinity by XRPD after subsequent storage of treated sample [4]: regained crystallinity after storage at high humidity
2 | – | – | – | – | – | – | – | – | – | – | – | – | – | – | CCCN1CCC[C@@H]2Cc3c(ccc4c3OCO4)C[C@H]21 [Compound (Ib)] | – | – | Plasma profile of compound (I) after oral dosing, in words [5]: early and high peak concentrations
3 | non-hygroscopic | – | 7.6 | DH1 | – | – | – | 7.6 | DH1 | – | 7.5 | DH1 | 7.6 | DH1 | CCCN1CCC[C@@H]2Cc3c(ccc(O)c3O[C@@H]3O[C@H](C(=O)O)[C@@H](O)[C@H](O)[C@H]3O)C[C@H]21 [DH1, (2S,3S,4S,5R,6S)-3,4,5-trihydroxy-6-(((4aR,10aR)-7-hydroxy-1-propyl-1,2,3,4,4a,5,10,10a-octahydrobenzo[g]quinolin-6-yl)oxy)tetrahydro-2H-pyran-2-carboxylic acid] | did not show sign of decreased crystallinity | did not show sign of decreased crystallinity | Water absorbed or desorbed (DVS) ([1]; humidity range 5-90% RH): Less than 0.1%; Overall outcome of stability testing, in words ([2]; listed as dihydrate): no changes in appearance, water content or physical form (XRPD); Water content, % ([2]; 25° C./60% RH, 4 months): 7.6%; Physical form ([2]; 25° C./60% RH, 4 months): DH1; Water content, % ([2]; 25° C./60% RH, 10 months): 7.4%; Water content, % ([2]; 40° C./75% RH, 4 months): 7.4%; Physical form ([2]; 40° C./75% RH, 4 months): DH1; Total sum of impurities after 6 months storage ([3]; 40° C./75% RH, listed as Dihydrate): 0.05%; Total sum of impurities after 6 months storage ([3]; 60° C., listed as Dihydrate): 1.0%; Total sum of impurities after 6 months storage ([3]; 60° C./80% RH, listed as Dihydrate): 0.05%; Crystallinity by XRPD after milling ([4]; milled vs un-milled material): no apparent change in crystallinity
4 | – | – | – | – | – | – | – | – | – | – | – | – | – | – | CN1CCc2cccc3c2[C@H]1Cc1ccc(O)c(O)c1-3 [apomorphine, reference compound] | – | – | Relationship of behavioral effect and plasma concentration (rat locomotor activity; (Id) 100 μg/kg p.o. (FIG. 4), apomorphine 3 mg/kg s.c. (FIG. 5)): correlation between plasma concentrations of apomorphine and hyperactive behavior; Start of locomotor effect post-administration (rat locomotor activity; (Id) 10 to 300 μg/kg p.o., apomorphine 3 mg/kg s.c., pramipexole 0.3 mg/kg s.c., FIG. 2): immediate; Time post administration at which hyperactivity is gone (rat locomotor activity; apomorphine 3 mg/kg s.c., 150-minute time point): 1.5 h

Row | SMILES | Hygroscopicity / behaviour towards humidity (DVS), in words [1] | Water content, % ([2]; 25° C./60% RH, 3 months) [%] | Water content, % ([2]; 25° C./60% RH, 6 months) [%] | Physical form ([2]; 25° C./60% RH, 6 months) | Water content, % ([2]; 25° C./60% RH, 9 months) [%] | Physical form ([2]; 25° C./60% RH, 9 months) | Water content, % ([2]; 25° C./60% RH, 18 months) [%] | Water content, % ([2]; 25° C./60% RH, Initial) [%] | Physical form ([2]; 25° C./60% RH, Initial) | Water content, % ([2]; 40° C./75% RH, 3 months) [%] | Water content, % ([2]; 40° C./75% RH, 6 months) [%] | Physical form ([2]; 40° C./75% RH, 6 months) | Water content, % ([2]; 40° C./75% RH, Initial) [%] | Physical form ([2]; 40° C./75% RH, Initial) | Crystallinity by XRPD after pressure [4] | Crystallinity by XRPD after grinding [4] | also measured
5 | CCCN1CCC[C@@H]2Cc3c(ccc(O)c3O[C@@H]3O[C@H](C(=O)O)[C@@H](O)[C@H](O)[C@H]3O)C[C@H]21 [HH, (2S,3S,4S,5R,6S)-3,4,5-trihydroxy-6-(((4aR,10aR)-7-hydroxy-1-propyl-1,2,3,4,4a,5,10,10a-octahydrobenzo[g]quinolin-6-yl)oxy)tetrahydro-2H-pyran-2-carboxylic acid] | absorbs and desorbs water at humidity between 20% RH and 95% RH without changing the crystal form | 22.3 | 20.0 | – | 21.6 | Form C | 20.9 | 21.6 | – | 7.6 | 7.6 | – | 21.6 | – | – | – | Behaviour at low humidity (DVS), in words ([1]; humidity below 20%): changes into other less hydrated forms; Overall outcome of stability testing, in words [2]: Changes in visual appearance, water content and physical form (XRPD) were seen; Water content, % ([2]; 25° C./60% RH, 12 months): 15.0%; Physical form ([2]; 40° C./75% RH, 3 months): DH1; Total sum of impurities after 6 months storage ([3]; 40° C./75% RH, listed as Heptahydrate): <0.05%; Total sum of impurities after 6 months storage ([3]; 60° C., listed as Heptahydrate): 4.3%; Total sum of impurities after 6 months storage ([3]; 60° C./80% RH, listed as Heptahydrate): <0.05%; Crystallinity by XRPD after subsequent storage of treated sample ([4]; listed as heptahydrate): regained crystallinity after storage; Crystallinity by XRPD after grinding ([4]; listed as heptahydrate): reflections became a bit broader and an amorphous halo became visible
